# In ChEMBL document CHEMBL6121019, “Design, synthesis and biological evaluation of bisnoralcohol derivatives as novel IRF4 inhibitors for the treatment of multiple myeloma” (Eur J Med Chem, 2025):
# Activity calls are given as the source filed them. The calls are words filed in the database; no cut-off is given here.
# Experiments:
# [1] = Terminal elimination half life in ICR mouse plasma at 1.0 mg/kg, iv; assay type: ADME, organism-based; settings: read-out: beta t1/2 (converted)
# [2] = tested on: NCI-H929; experiment: Antitumor activity against human NCI-H929 cells xenografted in Balb/C nude mouse model assessed as inhibition of Akt phosphorylation level at 25 mg/kg by Western blot analysis; assay type: functional, organism-based
# [3] = tested on: NCI-H929; experiment: Inhibition of ERK phosphorylation level in human NCI-H929 cells at 0.1 to 1 uM by Western blot analysis; assay type: functional, cell-based; settings: dose 0.1-1 µM
# [4] = tested on: NCI-H929; experiment: Induction of cell cycle arrest in human NCI-H929 cells assessed as accumulation of cells at G1 phase measured after 24 hrs by flow cytometry analysis; assay type: functional, cell-based; settings: dose 0.125-0.5 µM
# [5] = tested on: NCI-H929; experiment: Antiproliferative activity against human NCI-H929 cells with siRNA mediated IRF4 knockdown measured upto 5 days by MTS assay; assay type: functional, cell-based; settings: time <= 5.0 day
# [6] = tested on: NCI-H929; experiment: Induction of cell cycle arrest in human NCI-H929 cells assessed as inhibition of cyclin B1 protein expression at 0.1 to 1 uM; assay type: functional, cell-based; settings: dose 0.1-1 µM
# [7] = target: T1, Interferon regulatory factor 4 (Homo sapiens, UniProt Q15306); experiment: Binding affinity to IRF4 (unknown origin) assessed as dissociation constant by SPR analysis
# T1 sequence (Q15306 whole entry): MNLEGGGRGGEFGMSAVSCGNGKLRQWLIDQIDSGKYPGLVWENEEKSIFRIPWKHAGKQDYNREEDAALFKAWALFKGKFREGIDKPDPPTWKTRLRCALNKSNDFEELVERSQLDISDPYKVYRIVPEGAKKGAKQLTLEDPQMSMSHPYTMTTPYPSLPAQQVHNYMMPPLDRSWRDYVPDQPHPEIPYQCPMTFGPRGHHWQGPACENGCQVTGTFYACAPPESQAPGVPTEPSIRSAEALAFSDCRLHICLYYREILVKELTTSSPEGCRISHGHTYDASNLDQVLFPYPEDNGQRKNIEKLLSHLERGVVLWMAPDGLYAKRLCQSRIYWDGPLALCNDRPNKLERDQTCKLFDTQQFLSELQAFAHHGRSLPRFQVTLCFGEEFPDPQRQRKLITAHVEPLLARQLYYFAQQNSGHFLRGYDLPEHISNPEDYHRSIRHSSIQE
# [8] = tested on: NCI-H929; experiment: Downregulation of CANX expression in human NCI-H929 cells measured after 24 hrs by qRT-PCR analysis; assay type: functional, cell-based; settings: dose 0.125-1 µM
# [9] = tested on: NCI-H929; experiment: Induction of cell cycle arrest in human NCI-H929 cells assessed as accumulation of cells at G2 phase at 0.25 uM measured after 24 hrs by flow cytometry analysis (reference value: 13.37%); assay type: functional
# [10] = tested on: HAF; experiment: Effect on IRF4 expression in human HAF cells by Western blot analysis; assay type: functional, cell-based
# [11] = Antiproliferative activity against human HAF cells assessed as inhibition of cell viability measured after 72 hrs by MTS assay; assay type: toxicity, cell-based
# [12] = Potency index, ratio of IC50 for lenalidomide to test compound IC50 for antiproliferative activity against human NCI-H929 cells assessed as inhibition of cell growth measured after 72 hrs by MTS assay; assay type: functional
# [13] = tested on: NCI-H929; experiment: Antiproliferative activity against human NCI-H929 cells assessed as inhibition of 3D clone forming ability measured after 2 to 3 weeks; assay type: functional, cell-based; settings: dose 0.125-1 µM, time 2-3 weeks
# [14] = Antiproliferative activity against human MM1.R cells assessed as inhibition of cell viability measured after 72 hrs by MTS assay; assay type: functional, cell-based; settings: MM.1R
# [15] = tested on: NCI-H929; experiment: Induction of cell cycle arrest in human NCI-H929 cells assessed as inhibition of cyclin D1 protein expression at 0.1 to 1 uM; assay type: functional, cell-based; settings: dose 0.1-1 µM
# [16] = tested on: NCI-H929; experiment: Antiproliferative activity against human NCI-H929 cells with siRNA mediated IRF4#2 knockdown at 0.125 to 1 uM measured upto 5 days by MTS assay; assay type: functional, cell-based; settings: dose 0.125-1 µM, time <= 5.0 day
# [17] = tested on: NCI-H929; experiment: Antitumor activity against human NCI-H929 cells xenografted in Balb/C nude mouse model assessed as inhibition of […] expression at 25 mg/kg by Western blot analysis; assay type: functional, organism-based
# [18] = Potency index, ratio of IC50 for lenalidomide to test compound IC50 for antiproliferative activity against human MM1.R cells assessed as inhibition of cell growth measured after 72 hrs by MTS assay; assay type: functional
# [19] = tested on: NCI-H929; experiment: Induction of cell cycle arrest in human NCI-H929 cells assessed as inhibition of CDC2 protein expression at 0.1 to 1 uM; assay type: functional, cell-based; settings: dose 0.1-1 µM
# [20] = tested on: MM.1R; experiment: Antiproliferative activity against human MM1.R cells with siRNA mediated IRF4#2 knockdown at 0.125 to 1 uM measured upto 5 days by MTS assay; assay type: functional, cell-based; settings: dose 0.125-1 µM, time <= 5.0 day
# [21] = tested on: MM.1R; experiment: Antiproliferative activity against human MM1.R cells assessed as inhibition of 3D clone forming ability measured after 2 to 3 weeks; assay type: functional, cell-based; settings: dose 0.125-1 µM, time 2-3 weeks
# [22] = Oral bioavailability in ICR mouse plasma at 10 mg/kg; assay type: ADME, organism-based
# [23] = Antiproliferative activity against human HaCaT cells assessed as inhibition of cell viability measured after 72 hrs by MTS assay; assay type: toxicity, cell-based
# [24] = tested on: MM.1R; experiment: Antiproliferative activity against human MM1.R cells with siRNA mediated IRF4 knockdown measured upto 5 days by MTS assay; assay type: functional, cell-based; settings: time <= 5.0 day
# [25] = Toxicity in Balb/C nude mouse assessed as change in body weight at 12.5 to 25 mg/kg administered once daily and measured every three days for 34 days; assay type: organism-based; settings: in vivo, 816 h, dose 12.5-25 mg/kg, time 34 day
# [26] = Clearance in ICR mouse plasma at 1.0 mg/kg, iv; assay type: ADME, organism-based
# [27] = Potency index, ratio of IC50 for lenalidomide to test compound IC50 for antiproliferative activity against human RPMI-8226 cells assessed as inhibition of cell growth measured after 72 hrs by MTS assay; assay type: functional
# [28] = tested on: NCI-H929; experiment: Effect on IRF4 expression in human NCI-H929 cells with siRNA mediated IRF4 knockdown by Western blot analysis; assay type: functional, cell-based
# [29] = Tmax in ICR mouse plasma at 1.0 mg/kg, iv; assay type: ADME, organism-based
# [30] = tested on: MM.1R; experiment: Effect on IRF4 expression in human MM1.R cells by Western blot analysis; assay type: functional, cell-based
# [31] = tested on: NCI-H929; experiment: Induction of DNA damage in human NCI-H929 cells assessed as increase in gammaH2AX expression at 0.1 to 1 uM by Western blot analysis; assay type: functional, cell-based; settings: dose 0.1-1 µM
# [32] = tested on: NCI-H929; experiment: Antitumor activity against human NCI-H929 cells xenografted in Balb/C nude mouse model assessed as reduction in Ki67 expression at 25 mg/kg by immunohistochemical staining based analysis; assay type: functional, organism-based
# [33] = Toxicity in Balb/C nude mouse assessed as changes in main organ at 12.5 to 25 mg/kg administered once daily and measured every three days for 34 days by H and E staining based analysis; assay type: organism-based; settings: in vivo, 816 h, dose 12.5-25 mg/kg, time 34 day
# [34] = tested on: MM.1R; experiment: Downregulation of E2F5 expression in human MM1.R cells measured after 24 hrs by qRT-PCR analysis; assay type: functional, cell-based; settings: dose 0.125-1 µM
# [35] = Selectivity ratio IC50 for human RPMI-8226 cells to IC50 for human NCI-H929 cells; assay type: toxicity
# [36] = tested on: NCI-H929; experiment: Antitumor activity against human NCI-H929 cells xenografted in Balb/C nude mouse model assessed as inhibition of ERK phosphorylation level at 25 mg/kg by Western blot analysis; assay type: functional, organism-based
# [37] = tested on: NCI-H929; experiment: Downregulation of E2F5 expression in human NCI-H929 cells measured after 24 hrs by qRT-PCR analysis; assay type: functional, cell-based; settings: dose 0.125-1 µM
compound,measurement,setting,value
COc1ccc(NC(=O)[C@@H](C)[C@H]2CC[C@H]3[C@@H]4C(=O)C=C5C(C)(C)C(=O)C(C#N)=C[C@]5(C)[C@H]4CC[C@]23C)cc1,half-life,[1],75 min
same,Activity,[2],Active
same,inhibition,[3],Active
same,Activity,[4],Dose-dependent-effect
same,Activity,[5],Active
same,Activity,[6],Active
same,Kd,[7],1280 nM
same,Activity,[8],Active
same,Activity,[9],14.14%
same,Activity,[10],inactive
same,IC50 at 72 h,[11],> 100000 nM
same,Ratio IC50,[12],30
same,Activity,[13],Dose-dependent-effect
same,IC50,[14],110 nM
same,Activity,[15],Active
same,Activity,[16],Active
same,Activity,[17],Active
same,Ratio IC50,[18],30
same,Activity,[19],Active
same,Activity,[20],Active
same,Activity,[21],Dose-dependent-effect
same,bioavailability,[22],53.9%
same,IC50 at 72 h,[23],> 100000 nM
same,Activity,[24],Active
same,Activity,[25],Non-toxic
same,clearance,[26],197 mL/min/kg
same,Ratio IC50,[27],30
same,Activity,[28],Active
same,Tmax,[29],4.8 min
same,Activity,[30],Active
same,Activity,[31],Active
same,Activity,[32],Active
same,Activity,[33],Non-toxic
same,Activity,[34],Active
same,Ratio IC50,[35],14.9
same,Activity,[36],Active
same,Activity,[37],Active
